Reference: patent publication US7462600B2, “Macrolides” (Pfizer Inc, priority 2004, dated 2008)
Converted amounts (≈) assume the structure as drawn.

Key:
Type in all cases: cell-based
[1] = tested on: Streptococcus pyogenes 1079; experiment: MIC, microtiter broth dilution (NCCLS M100-S14), S. pyogenes 1079 (ermB); settings: Streptococcus pyogenes 1079
Summary of the method: (§1)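 NCCLS M100-S14 rules govern how the microdilution MICs are interpreted. Each compound starts as a 40 mg/ml solution in DMSO before dilution.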

[2] = tested on: Streptococcus pneumoniae 1095; settings: Streptococcus pneumoniae 1095; microtiter broth dilution
Summary of the method: as §1

[3] = tested on: Streptococcus pneumoniae 1175; settings: Streptococcus pneumoniae 1175; microtiter broth dilution
Summary of the method: as §1

[4] = tested on: Streptococcus pneumoniae 1016; experiment: MIC, microtiter broth dilution (NCCLS M100-S14), S. pneumoniae 1016 (susceptible); settings: Streptococcus pneumoniae 1016
Summary of the method: as §1

[5] = tested on: Haemophilus influenzae 1218; experiment: MIC, microtiter broth dilution (NCCLS M100-S14), H. influenzae 1218 (susceptible); settings: Haemophilus influenzae 1218
Summary of the method: as §1

## CCC1OC(=O)C(C)C(=O)C(C)C(OC2OC(C)CC(N(C)C)C2O)C(C)(OC)CC(C)C(=O)C(C)C2N(C3CN(C(=O)Nc4cc(-c5cncc(C)c5)n[nH]4)C3)C(=O)OC12C (centres unmarked) [Example 2.08]
[1]
  MIC S. pyogenes 1079: 32 µg/mL (≈ 36.9 µM)
[2]
  MIC S. pneumo. 1095: 1 µg/mL (≈ 1.15 µM)
[3]
  MIC S. pneumo. 1175: 16 µg/mL (≈ 18.4 µM)
[4]
  MIC S. pneumo. 1016: <0.06 µg/mL
[5]
  MIC H. influenzae 1218: 8 µg/mL (≈ 9.22 µM)

## CCC1OC(=O)C(C)C(=O)C(C)C(OC2OC(C)CC(N(C)C)C2O)C(C)(OC)CC(C)C(=O)C(C)C2N(C3CN(C(=O)Nc4cccc5nccnc45)C3)C(=O)OC12C (centres unmarked) [Example 2.09, N-(quinoxalin-8-yl) aminocarbonyl]
[1]
  MIC S. pyogenes 1079: >64.00 µg/mL
[2]
  MIC S. pneumo. 1095: 16 µg/mL (≈ 19.1 µM)
[3]
  MIC S. pneumo. 1175: 0.25 µg/mL (≈ 0.298 µM)
[4]
  MIC S. pneumo. 1016: <0.06 µg/mL
[5]
  MIC H. influenzae 1218: 8 µg/mL (≈ 9.54 µM)

## CCC1OC(=O)C(C)C(=O)C(C)C(OC2OC(C)CC(N(C)C)C2O)C(C)(OC)CC(C)C(=O)C(C)C2N(C3CN(C(=O)NCc4ccc5ncccc5c4)C3)C(=O)OC12C (centres unmarked) [Example 2.10, N-((quinolin-6-yl)inethyl) aminocarbonyl]
[1]
  MIC S. pyogenes 1079: >64.00 µg/mL
[2]
  MIC S. pneumo. 1095: 8 µg/mL (≈ 9.39 µM)
[3]
  MIC S. pneumo. 1175: 0.25 µg/mL (≈ 0.293 µM)
[4]
  MIC S. pneumo. 1016: <0.06 µg/mL
[5]
  MIC H. influenzae 1218: 2 µg/mL (≈ 2.35 µM)

## CCC1OC(=O)C(C)C(=O)C(C)C(OC2OC(C)CC(N(C)C)C2O)C(C)(OC)CC(C)C(=O)C(C)C2N(C3CN(C(=O)NCc4cnc5ccccc5c4)C3)C(=O)OC12C (centres unmarked) [Example 2.11, N-((quinolin-3-)methyl) aminocarbonyl]
[1]
  MIC S. pyogenes 1079: >64.00 µg/mL
[2]
  MIC S. pneumo. 1095: 2 µg/mL (≈ 2.35 µM)
[3]
  MIC S. pneumo. 1175: 0.12 µg/mL (≈ 0.141 µM)
[4]
  MIC S. pneumo. 1016: <0.06 µg/mL
[5]
  MIC H. influenzae 1218: 0.5 µg/mL (≈ 0.587 µM)

## CCC1OC(=O)C(C)C(=O)C(C)C(OC2OC(C)CC(N(C)C)C2O)C(C)(OC)CC(C)C(=O)C(C)C2N(C3CN(C(=O)c4ccc(-c5noc(C)n5)cc4)C3)C(=O)OC12C (centres unmarked) [Example 2.12]
[1]
  MIC S. pyogenes 1079: >64.00 µg/mL
[2]
  MIC S. pneumo. 1095: 2 µg/mL (≈ 2.34 µM)
[3]
  MIC S. pneumo. 1175: 0.25 µg/mL (≈ 0.293 µM)
[4]
  MIC S. pneumo. 1016: <0.06 µg/mL
[5]
  MIC H. influenzae 1218: 32 µg/mL (≈ 37.5 µM)

## CCC1OC(=O)C(C)C(=O)C(C)C(OC2OC(C)CC(N(C)C)C2O)C(C)(OC)CC(C)C(=O)C(C)C2N(C3CN(C(=O)c4ccc(-n5cccn5)cc4)C3)C(=O)OC12C (centres unmarked) [Example 2.13]
[1]
  MIC S. pyogenes 1079: >64.00 µg/mL
[2]
  MIC S. pneumo. 1095: 2 µg/mL (≈ 2.39 µM)
[3]
  MIC S. pneumo. 1175: 0.12 µg/mL (≈ 0.143 µM)
[4]
  MIC S. pneumo. 1016: <0.06 µg/mL
[5]
  MIC H. influenzae 1218: 8 µg/mL (≈ 9.55 µM)

## CCC1OC(=O)C(C)C(=O)C(C)C(OC2OC(C)CC(N(C)C)C2O)C(C)(OC)CC(C)C(=O)C(C)C2N(C3CN(C(=O)c4ccc(-n5ccnc5)cc4)C3)C(=O)OC12C (centres unmarked) [Example 2.14]
[1]
  MIC S. pyogenes 1079: >64.00 µg/mL
[2]
  MIC S. pneumo. 1095: 2 µg/mL (≈ 2.39 µM)
[3]
  MIC S. pneumo. 1175: 0.25 µg/mL (≈ 0.298 µM)
[4]
  MIC S. pneumo. 1016: <0.06 µg/mL
[5]
  MIC H. influenzae 1218: 4 µg/mL (≈ 4.77 µM)

## CCC1OC(=O)C(C)C(=O)C(C)C(OC2OC(C)CC(N(C)C)C2O)C(C)(OC)CC(C)C(=O)C(C)C2N(C3CN(C(=O)c4cccc(-c5noc(C)n5)c4)C3)C(=O)OC12C (centres unmarked) [Example 2.16, 3-(5-methyl-1,2,4-oxadiazol-3-yl)benzoyl]
[1]
  MIC S. pyogenes 1079: >64.00 µg/mL
[2]
  MIC S. pneumo. 1095: 16 µg/mL (≈ 18.7 µM)
[3]
  MIC S. pneumo. 1175: 0.25 µg/mL (≈ 0.293 µM)
[4]
  MIC S. pneumo. 1016: <0.06 µg/mL
[5]
  MIC H. influenzae 1218: 64 µg/mL (≈ 74.9 µM)

## CCC1OC(=O)C(C)C(=O)C(C)C(OC2OC(C)CC(N(C)C)C2O)C(C)(OC)CC(C)C(=O)C(C)C2N(C3CN(C(=O)c4cccc(-n5nc(C)cc5C)c4)C3)C(=O)OC12C (centres unmarked) [Example 2.17, 3-(3,5-dimethyl-1H-pyrazol-1-yl)benzoyl]
[1]
  MIC S. pyogenes 1079: >64.00 µg/mL
[2]
  MIC S. pneumo. 1095: >64.00 µg/mL
[3]
  MIC S. pneumo. 1175: 0.25 µg/mL (≈ 0.289 µM)
[4]
  MIC S. pneumo. 1016: <0.06 µg/mL
[5]
  MIC H. influenzae 1218: >64.00 µg/mL

## CCC1OC(=O)C(C)C(=O)C(C)C(OC2OC(C)CC(N(C)C)C2O)C(C)(OC)CC(C)C(=O)C(C)C2N(C3CN(C(=O)c4ccnc(-c5noc(C)n5)c4)C3)C(=O)OC12C (centres unmarked) [Example 2.18]
[1]
  MIC S. pyogenes 1079: >64.00 µg/mL
[2]
  MIC S. pneumo. 1095: >64.00 µg/mL
[3]
  MIC S. pneumo. 1175: 0.5 µg/mL (≈ 0.585 µM)
[4]
  MIC S. pneumo. 1016: <0.06 µg/mL
[5]
  MIC H. influenzae 1218: 32 µg/mL (≈ 37.4 µM)
